In article PMC11091072, “Targeting bacterial nickel transport with aspergillomarasmine A suppresses virulence-associated Ni-dependent enzymes” (Nature Communications, 2024):
Values joined by “and” are separate entries in the source; they are usually repeats but may differ in a detail not shown here. Identical values can stand only once. Like-named read-outs stand apart in the source and are kept apart here.

Key:
[1] = test system: [NiFe]-hydrogenase (Hyd-3); assay: Whole-cell [NiFe] hydrogenase assay (benzyl viologen reduction); format: cell-based, Klebsiella pneumoniae; parameters: Benzyl viologen hydrogenase assay (activity): unit not given here
Text: We reasoned that disruption of Ni^2+ uptake and homeostasis should also perturb the activity of other Ni-dependent enzymes. To examine this possibility, we tested the effects of free AMA and Zn-AMA on Ni-dependent hydrogen metabolism in bacteria. […] K. pneumoniae produces a single [NiFe]-hydrogenase (Hyd-3) as part of the H2-evolving formate hydrogenlyase (FHL) complex and is encoded by the hyc operon (Fig S8)[21]. […] To measure [NiFe]-hydrogenase-catalyzed H2 […], benzyl viologen was used as an artificial electron acceptor, as previously described. Although Hyd-3 is involved in the evolution of H2, previous work in E. coli has shown that it is responsible for 90% of the hydrogen-dependent benzyl viologen reduction in crude extracts and whole-cell assays[41]–[44].
The whole-cell hydrogenase activity in K. pneumoniae was based on a modified method described by Lacasse et al.[41] […] The cell suspension was diluted 1/100 in LB supplemented with 0.8% glucose, 10 mM MgCl2, and 10 mM potassium phosphate, pH 7.2. […] Following an 18-hour incubation, whole-cell [NiFe] hydrogenase activity was monitored by adding benzyl viologen (1 mg/mL) to each well, followed by continuous monitoring of the change in absorbance at 630 nm using a BioTek Synergy H1 microplate reader in an anaerobic glove box.

[2] = test system: K. pneumoniae urease activity (whole cell); assay: microbe, parasite or virus in culture; format: cell-based, Klebsiella pneumoniae ATCC 33495; details: artificial urine, 24 h; for K. pneumoniae urease-dependent pH change (pH): 37 °C
[3] = test system: cellular Ni and Zn content of K. pneumoniae; assay: Cellular metal analysis by ICP-MS (60Ni, 66Zn); format: cell-based, Klebsiella pneumoniae
Procedure: The cellular Zn^2+ and Ni^2+ content of K. pneumoniae was carried out according to the method described by Maunders et al.[66] with some modifications. An overnight culture of K. pneumoniae was diluted 1/200 in LB medium (5 mL) and was either untreated or treated with 0.2 mM AMA or Zn-AMA. The cells were grown for 16 h at 37 °C, harvested by centrifugation, and washed twice with PBS containing 5 mM EDTA and twice with ultra-pure water. The cell pellet was subsequently digested in 0.25 mL 65% HNO3 at 80 °C for 30 minutes in borosilicate glass tubes using a water bath. The samples were diluted to 2% HNO3 and filtered through a 0.45 μm syringe filter. ^60Ni and ^66Zn were quantified using a Thermo iCAP Q ICP-MS.

[4] = test system: K. pneumoniae; format: cell-based, Klebsiella pneumoniae; details: 200 μM, 24 h exposure
[5] = test system: S. aureus; format: cell-based, Staphylococcus aureus; details: 200 μM, 24 h
[6] = test system: S. aureus urease activity (whole cell); format: cell-based, Staphylococcus aureus; details: artificial urine, 24 h; for Staphylococcus aureus urease-dependent pH change (pH): 37 °C
[7] = test system: K. pneumoniae; format: cell-based, Klebsiella pneumoniae; details: for Growth curve (culture density): 50 μM
[8] = test system: HEK293 cells; assay: HEK293 cytotoxicity assay (Cell Titer Glo 2.0)
[9] = K. pneumoniae treated with 200 μM

Q: With N[C@@H](CN[C@@H](CN[C@@H](CC(=O)O)C(=O)O)C(=O)O)C(=O)O [AMA, aspergillomarasmine A] as the compound, how does the “Benzyl viologen hydrogenase assay (activity)” value ([1]; 1.5625 μM) read?
A: 10.01 and 8.89

Q: What about the “Benzyl viologen hydrogenase assay (activity)” value ([1]; 3.125 μM) of the same compound?
A: 10.26 and 7.90

Q: And the “Benzyl viologen hydrogenase assay (activity)” value ([1]; 6.25 μM)?
A: 10.55 and 8.44

Q: And the “Benzyl viologen hydrogenase assay (activity)” value ([1]; 12.5 μM)?
A: 10.31 and 8.59

Q: What about the “Benzyl viologen hydrogenase assay (activity)” value ([1]; 25 μM) of the same compound?
A: 10.36 and 8.93

Q: What about the “Benzyl viologen hydrogenase assay (activity)” value ([1]; 50 μM) of the same compound?
A: 9.47 and 8.79

Q: What about the “Benzyl viologen hydrogenase assay (activity)” value ([1]; 100 μM) of the same compound?
A: 9.67 and 7.85

Q: What about the “Benzyl viologen hydrogenase assay (activity)” value ([1]; 200 μM) of the same compound?
A: 9.18 and 9.08

Q: And the “Benzyl viologen hydrogenase assay (activity)” value ([1]; 400 μM)?
A: 9.38 and 7.95

Q: What about the “effect on [NiFe]-hydrogenase activity” value ([1]; LB-glucose, anaerobic, whole cell) of the same compound?
A: no impact on [NiFe]-hydrogenase activity

Q: What about the “K. pneumoniae urease-dependent pH change (pH)” value ([2]; 0.19 μM) of the same compound?
A: 8.15 and 8.19

Q: What about the “K. pneumoniae urease-dependent pH change (pH)” value ([2]; 0.39 μM) of the same compound?
A: 8.16 and 8.12

Q: What about the “K. pneumoniae urease-dependent pH change (pH)” value ([2]; 0.78 μM) of the same compound?
A: 8.08 and 8.03

Q: And the “K. pneumoniae urease-dependent pH change (pH)” value ([2]; 1.56 μM)?
A: 7.97 and 7.75

Q: What about the “K. pneumoniae urease-dependent pH change (pH)” value ([2]; 3.12 μM) of the same compound?
A: 7.86 and 7.57

Q: And the “K. pneumoniae urease-dependent pH change (pH)” value ([2]; 6.25 μM)?
A: 7.81 and 7.46

Q: What about the “K. pneumoniae urease-dependent pH change (pH)” value ([2]; 12.5 μM) of the same compound?
A: 7.78 and 7.33

Q: And the “K. pneumoniae urease-dependent pH change (pH)” value ([2]; 25 μM)?
A: 7.75 and 7.40

Q: What about the “K. pneumoniae urease-dependent pH change (pH)” value ([2]; 50 μM) of the same compound?
A: 7.87 and 7.54

Q: What about the “K. pneumoniae urease-dependent pH change (pH)” value ([2]; 100 μM) of the same compound?
A: 8.02 and 7.77

Q: And the “K. pneumoniae urease-dependent pH change (pH)” value ([2]; 200 μM)?
A: 8.03 and 8.04

Q: And the “effect on urease activity” value ([2]; K. pneumoniae)?
A: did not significantly affect urease activity

Q: And the “effect on intracellular Ni^2+ levels” value ([3]; 200 μM, ICP-MS)?
A: reduced intracellular Ni^2+ levels

Q: What about the “effect on intracellular Zn^2+ levels” value ([3]; 200 μM, ICP-MS) of the same compound?
A: without affecting Zn^2+ levels

Q: And the “ICP-MS cellular Ni” value [3, 9]?
A: 2.92 µM and 2.63 µM

Q: What about the “ICP-MS cellular Zn” value [3, 9] of the same compound?
A: 0.75 µM and 0.88 µM

Q: And the “bacterial viability (spot dilutions)” value [4]?
A: do not affect bacterial viability

Q: What about the “bacterial viability (spot dilutions)” value [5] of the same compound?
A: not lethal to bacteria

Q: And the “Staphylococcus aureus urease-dependent pH change (pH)” value ([6]; 0.19 μM)?
A: 6.95 and 7.25

Q: And the “Staphylococcus aureus urease-dependent pH change (pH)” value ([6]; 0.39 μM)?
A: 6.96 and 7.10

Q: What about the “Staphylococcus aureus urease-dependent pH change (pH)” value ([6]; 0.78 μM) of the same compound?
A: 6.77 and 6.94

Q: And the “Staphylococcus aureus urease-dependent pH change (pH)” value ([6]; 1.56 μM)?
A: 6.69 and 6.68

Q: What about the “Staphylococcus aureus urease-dependent pH change (pH)” value ([6]; 3.12 μM) of the same compound?
A: 6.42 and 6.51

Q: What about the “Staphylococcus aureus urease-dependent pH change (pH)” value ([6]; 6.25 μM) of the same compound?
A: 6.40 and 6.45

Q: What about the “Staphylococcus aureus urease-dependent pH change (pH)” value ([6]; 12.5 μM) of the same compound?
A: 6.33 and 6.40

Q: And the “Staphylococcus aureus urease-dependent pH change (pH)” value ([6]; 25 μM)?
A: 6.33 and 6.38

Q: And the “Staphylococcus aureus urease-dependent pH change (pH)” value ([6]; 50 μM)?
A: 6.38

Q: And the “Staphylococcus aureus urease-dependent pH change (pH)” value ([6]; 100 μM)?
A: 6.31 and 6.37

Q: And the “Staphylococcus aureus urease-dependent pH change (pH)” value ([6]; 200 μM)?
A: 6.35 and 6.38

Q: And the “effect on urease activity” value ([6]; S. aureus)?
A: inhibited urease activity similarly

Q: What about the “Growth of K. pneumoniae with urea as a sole nitrogen source (OD600)” value [7] of the same compound?
A: 1.19

Q: And the “Growth curve (culture density)” value ([7]; 15.15 h)?
A: 0.165 and 0.162

Q: What about the “Growth curve (culture density)” value ([7]; 16.15 h) of the same compound?
A: 0.186 and 0.183

Q: What about the “Growth curve (culture density)” value ([7]; 17.15 h) of the same compound?
A: 0.218 and 0.214

Q: What about the “growth with urea as sole nitrogen source” value ([7]; Chelex-treated nitrogen-limited medium) of the same compound?
A: not viable

Q: And the “cytotoxicity toward HEK293” value ([8]; 48 h, up to 512 μg/mL (~1.4 mM))?
A: no significant cytotoxicity

Q: And the “IC50 (HEK293 viability)” value ([8]; 48 h, highest tested 512 µg/mL (MG-132 62.5 µg/mL), Zn and Ni values of low confidence)?
A: Does no t fit to the mo del

Q: And the “HEK 293T cytotoxicity assay raw signal” value ([8]; AMA 0.5 μg/mL)?
A: 625667 and 666020 and 709951

Q: What about the “HEK 293T cytotoxicity assay raw signal” value ([8]; AMA 1 μg/mL) of the same compound?
A: 642619 and 585959 and 657816

Q: And the “HEK 293T cytotoxicity assay raw signal” value ([8]; AMA 2 μg/mL)?
A: 663671 and 698910 and 700863

Q: What about the “HEK 293T cytotoxicity assay raw signal” value ([8]; AMA 4 μg/mL) of the same compound?
A: 595054 and 606045 and 670753

Q: And the “HEK 293T cytotoxicity assay raw signal” value ([8]; AMA 8 μg/mL)?
A: 579865 and 576275 and 764893

Q: And the “HEK 293T cytotoxicity assay raw signal” value ([8]; AMA 16 μg/mL)?
A: 628738 and 611425 and 704710

Q: And the “HEK 293T cytotoxicity assay raw signal” value ([8]; AMA 32 μg/mL)?
A: 627377 and 612979 and 683402

Q: What about the “HEK 293T cytotoxicity assay raw signal” value ([8]; AMA 64 μg/mL) of the same compound?
A: 591894 and 576108 and 744283

Q: And the “HEK 293T cytotoxicity assay raw signal” value ([8]; AMA 128 μg/mL)?
A: 558480 and 565965 and 608380

Q: What about the “HEK 293T cytotoxicity assay raw signal” value ([8]; AMA 256 μg/mL) of the same compound?
A: 567074 and 538238 and 648309

Q: And the “HEK 293T cytotoxicity assay raw signal” value ([8]; AMA 512 μg/mL)?
A: 571681 and 577586 and 600345
